The results in this text go back to patent US20080234333A1, “Novel Hydroxamic Acid Derivative as Peptide Deformylase Inhibitor and Manufacturing Method Thereof” (priority 2005, published 2008).

≈ marks a conversion by molar mass, not a printed value.

Series [1] can be described thus: Acute toxicity study in mice. The following applies: male, mouse, in vivo, 4000 mg/kg; ICR mice (♂, 4 weeks), oral 4,000 mg/kg dose, observed for 14 days. How it is done: The acute toxicity of the compounds of Example 7, 13, 18 and 47 were tested using several groups of ICR mice each of 6 mice.
The test system of series [2] is Streptococcus pneumoniae. Kind of series: MIC, microdilution method in 96-well plates. The class given is cell-based. Particulars: Mueller-Hinton Broth, 37° C., 24 hours of incubation, read-out: MIC Streptococcus pneumoniae. How it is done: (§1) Minimum inhibitory concentrations (MICs) were determined using the microdilution method in 96-well format plates. Each of the compounds of Examples was dissolved in dimethyl sulfoxide to a concentration of 2 mg/mL and stored at 4° C. until used. They were diluted in Mueller-Hinton Broth (MHB) and used for MIC determination. The range of concentrations tested was […] final concentration using a two-fold dilution system. Plates were incubated at 37° C. and MIC were recorded after 24 hours of incubation for bacteria.
(§2) Linezolid and vancomycin were used as standard antibiotics, respectively.
For orientation: In broth dilution the organism is exposed to a series of concentrations in liquid medium.

In series [3] the test system is Vancomycin-resistant Enterococcus faecalis. The series is described as follows: MIC, microdilution method in 96-well plates. It counts as cell-based. The following applies: Mueller-Hinton Broth, 37° C., 24 hours of incubation, read-out: MIC Vancomycin-resistant Enterococcus faecalis. As to the method:
as §1, §2

Series [4] has as its system Streptococcus agalactiae. The series is described as follows: MIC, microdilution method in 96-well plates. It counts as cell-based. The following applies: Mueller-Hinton Broth, 37° C., 24 hours of incubation, read-out: MIC Streptococcus agalactiae. How it is done:
as §1, §2

In series [5] the test system is Methicillin-resistant Staphylococcus aureus. Kind of series: MIC, microdilution method in 96-well plates. The following applies: Mueller-Hinton Broth, 37° C., 24 hours of incubation, read-out: MIC Methicillin-resistant Staphylococcus aureus. The class given is cell-based. How it is done: as §1, §2
The test system of series [6] is Streptococcus pyogenes. Kind of series: MIC, microdilution method in 96-well plates. It counts as cell-based. Particulars: Mueller-Hinton Broth, 37° C., 24 hours of incubation, read-out: MIC Streptococcus pyogenes. As to the method: as §1, §2

Broadly, the LD50 is the dose at which mortality reaches 50%. Read a low LD50 as greater toxicity. Molecule `CCCC[C@H](CC(=O)NO)C(=O)N[C@H](C(=O)N1CCC(NC(=O)c2ccc(C)cc2)CC1)C(C)(C)C` [Example 18, (R)-2-Butyl-N^1-{(S)-2,2-dimethyl-1-[4-(4-methyl-benzoylamino)-piperidine-1-carbonyl]-propyl}-N^4-hydroxy-succinamide] registered an LD50 at 14 days in series [1] of more than 4000 mg/kg.
Still for that read-out and setting: under `Cc1ccc(NC(=O)NC2CCN(C(=O)[C@@H](NC(=O)[C@H](CC3CCCC3)CN(O)C=O)C(C)(C)C)CC2)cc1` [Example 47, (R)-2-Cyclopentylmethyl-N-{(S)-2,2-dimethyl-1-[4-(3-p-tolyl-ureido)-piperidine-1-carbonyl]-propyl}-3-(formyl-hydroxy-amino)-propionamide] stands more than 4000 mg/kg.
In general, MIC refers to the lowest concentration found to suppress growth. Turning to `CC(C)(C)[C@H](NC(=O)[C@@H](CC(=O)NO)CC1CCCC1)C(=O)N1CCC(NC(=O)c2ccc(C(F)(F)F)cc2)CC1` [Example 13, (R)-2-Cyclopentylmethyl-N^1-{(S)-2,2-dimethyl-1-[4-(4-trifluoromethyl-benzoylamino)-piperidine-1-carbonyl]-propyl}-N^4-hydroxy-succinamide], the MIC in series [2] came to 3.1 mg/L (≈ 5.32 µM); in series [3], 6.3 mg/L (≈ 10.8 µM); in series [4], 0.2 mg/L (≈ 0.343 µM); in series [5], 12.5 mg/L (≈ 21.5 µM); in series [6], 0.4 mg/L (≈ 0.687 µM). The LD50 at 14 days in series [1] was more than 4000 mg/kg.
